Results published in patent US7094909B2, “HIV protease inhibitors, compositions containing the same, their pharmaceutical uses and materials for their synthesis” (priority 2001, dated 2006).

Experiments:
[1] = target: T1, HIV-1 protease (Q7S mutant form) (Human immunodeficiency virus type 1 group M subtype B, UniProt P04585, Q495S); assay: HIV-1 Protease RET assay; type: biochemical; details: Ave. Ki (nM), RET assay, Q7S enzyme, Morrison tight binding fit
T1 construct: made in house
In short: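 Ki values fitted with the Morrison tight-binding equation from steady-state RET cleavage (ex 340, em 490 nm) of 5 μM RE(EDANS)SQNYPIVQK(DABCYL)R. Buffer pH 4.8 acetate, 1M NaCl, 5 mM DTT, 1 mg/ml BSA, 10% DMSO; 2 nM Q7S mutant dimer, 37 °C, 12 min.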

[2] = system: HIV-1 (HIV-1 RF, HIV-1 NL4-3) in CEM-SS / MT-2 cells; assay: Cytopathic effect (CPE) inhibition assay (XTT/MTT dye reduction); type: cell-based; details: Human immunodeficiency virus 1, NL43; read-out: Ave CPE EC50
In short: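 Readout is XTT reduction (A450, 4 h) after six days of culturing virus-infected (moi 0.025–0.819) or mock-infected CEM-SS/MT-2 cells, 2×10^4 per well, with half-log compound series. Antiviral EC50 and cytotoxic CC50 are relative to uninfected compound-free cells. Therapeutic index is CC50 divided by EC50.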

Structure (SMILES): CC1(C)SCN(C(=O)[C@@H](O)[C@H](Cc2ccccc2)NC(=O)c2cccc3c2CCN3)[C@@H]1C(=O)N[C@@H]1C=CCCC1 [Example B41, 2,3-Dihydro-1H-indole-carboxylic acid {(1S,2S)-1-benzyl-3-[(R)-4-((S)-cyclohex-2-enylcarbamoyl)-5,5-dimethyl-thiazolidin-3-yl]-2-hydroxy-3-oxo-propyl}-amide]
- Ki [1]: 0.11 nM
- EC50 [2]: 268 nM

Structure (SMILES): CC1(C)SCN(C(=O)[C@@H](O)[C@H](Cc2ccccc2)NC(=O)c2cccc3c2CCN3)[C@@H]1C(=O)N[C@H]1CCc2ccccc21 [Example B42, 2,3-Dihydro-1H-indole-4carboxylic acid {(1S,2S)-1-benzyl-2-hydroxy-3-[(R)-4-((S)-indan-1-ylcarbamoyl)-5,5-dimethyl-thiazolidin-3-yl]-3-oxo-propyl}-amide]
- Ki [1]: 0.13 nM
- EC50 [2]: 155 nM

Structure (SMILES): Cc1ccc(C(=O)N[C@@H](Cc2ccccc2)[C@H](O)C(=O)N2CSC(C)(C)[C@H]2C(=O)N[C@H]2CCc3ccccc32)c(C)c1O [Example B43, (R)-3-((2S,3S)-2-Hydroxy-3-{[1-(3-hydroxy-2,4-dimethyl-phenyl)-methanoyl]-amino}-4-phenyl-butanoyl)-5,5-dimethyl-thiazolidine-4-carboxylic acid (S)-indan-1-ylamide]
- Ki [1]: < 0.1 nM
- EC50 [2]: 375 nM

Structure (SMILES): CC1(C)SCN(C(=O)[C@@H](O)[C@H](Cc2ccccc2)NC(=O)c2cccc3c2CCN3)[C@@H]1C(=O)NC[C@H]1CCCO1 [Example B44, 2,3-Dihydro-1H-indole-4-carboxylic acid [(1S,2S)-1-benzyl-3-((R)-5,5-dimethyl-4-{[(R)-1-(tetrahydro-furan-2-yl)methyl]-carbamoyl}-thiazolidin-3-yl)-2-hydroxy-3-oxo-propyl]-amide]
- Ki [1]: 4.8 nM
- EC50 [2]: 660 nM

Structure (SMILES): CCCNC(=O)[C@H]1N(C(=O)[C@@H](O)[C@H](Cc2ccccc2)NC(=O)c2cccc3c2CCN3)CSC1(C)C [Example B45, 2,3-Dihydro-1H-indole-4-carboxylic acid [(1S,2S)-1-benzyl-3-((R)-5,5-dimethyl-4-propylcarbamoyl-thiazoldin-3-yl)-2-hydroxy-3-oxo-propyl]-amide]
- Ki [1]: 1.1 nM
- EC50 [2]: 572 nM

Structure (SMILES): C=CCOC(=O)N[C@@H](Cc1ccccc1)[C@H](O)C(=O)N1CSC(C)(C)[C@H]1C(=O)NCc1ccccc1Cl [Example B47, {(1S,2S)-1-Benzyl-3-[(R)-4(2-chloro-benzylcarbamoyl)-5,5-dimethyl-thiazolidin-3-yl]-2-hydroxy-3-oxo-propyl}-carbamic acid allyl ester]
- Ki [1]: 1.9 nM
- EC50 [2]: 1480 nM

Structure (SMILES): C#CCOC(=O)N[C@@H](Cc1ccccc1)[C@H](O)C(=O)N1CSC(C)(C)[C@H]1C(=O)NCc1ccccc1Cl [Example B48, {1-Benzyl-3-[4(2-chloro-benzylcarbamoyl)-5,5-dimethyl-thiazolidin-3-yl]-2-hydroxy-3-oxo-propyl}-carbamic acid prop-2-ynyl ester]
- Ki [1]: 0.83 nM
- EC50 [2]: 1480 nM

Structure (SMILES): C#CCOC(=O)N[C@@H](Cc1ccccc1)[C@H](O)C(=O)N1CSC(C)(C)[C@H]1C(=O)NCc1c(F)cccc1F [Example B51, {1-Benzyl-3-[4-(2,6-difluoro-benzylcarbamoyl)-5,5-dimethyl-thiazolidin-3-yl]-2-hydroxy-3-oxo-propyl}-carbamic acid prop-2-ynyl]
- Ki [1]: 0.99 nM
- EC50 [2]: > 3200 nM

Structure (SMILES): C#CCOC(=O)N[C@@H](Cc1ccccc1)[C@H](O)C(=O)N1CSC(C)(C)[C@H]1C(=O)NCc1ccccc1C(F)(F)F [Example B54, {1-Benzyl-3-[5,5-dimethyl-4-(2-trifluoromethyl-benzylcarbamoyl)-thiazolidin-3-yl]-2-hydroxy-3-oxo-propyl}-carbamic acid prop-2-ynyl ester]
- Ki [1]: 2.3 nM
- EC50 [2]: 1660 nM

Structure (SMILES): Cc1ccccc1CNC(=O)[C@H]1N(C(=O)[C@@H](O)[C@H](Cc2ccccc2)NC(=O)NCc2ccccc2)CSC1(C)C [Example B59, 3-[(2S,3S)-3-(3-Benzyl-ureido)-2-hydroxy-4-phenyl-butyryl]-5,5-dimethyl-thiazolidine-4-carboxylic acid 2-methyl-benzylamide]
- Ki [1]: 2.1 nM
- EC50 [2]: 1820 nM

Structure (SMILES): COc1ccc(CNC(=O)N[C@@H](Cc2ccccc2)[C@H](O)C(=O)N2CSC(C)(C)[C@H]2C(=O)NCc2ccccc2C)cc1 [Example B60, 3-{(S)-2-Hydroxy-3-[3-(4-methoxy-benzyl)-ureido]-4phenyl-butyryl}-5,5-dimethyl-thiazolidine-4-carboxylic acid 2-methyl-benzylamide]
- Ki [1]: 1.1 nM
- EC50 [2]: > 3200 nM

Structure (SMILES): C#CCOC(=O)N[C@@H](Cc1ccccc1)[C@H](O)C(=O)N1CSC(C)(C)[C@H]1C(=O)NCc1ccc(OC)cc1 [Example B64, {(1S,2S)-1-Benzyl-2-hydroxy-3-[4-(4-methoxy-benzylcarbamoyl)-5,5-dimethyl-thiazolidin-3-yl]-3-oxo-propyl}-carbamic acid prop-2-ynyl ester]
- Ki [1]: 0.53 nM
- EC50 [2]: 1600 nM

Structure (SMILES): CCC(C)C(=O)NC(Cc1ccccc1)C(O)C(=O)N1CSC(C)(C)[C@H]1C(=O)NCc1ccccc1C (stereo partly drawn) [Example B65, 3-[(2S,3S)-2-Hydroxy-3-((S)-2-methyl-butyrylamino)-4-phenyl-butyryl]-5,5-dimethyl-thiazolidine-4-carboxylic acid 2-methyl-benzylamide]
- Ki [1]: 4.9 nM
- EC50 [2]: 1640 nM

Structure (SMILES): C#CCOC(=O)N[C@@H](Cc1ccccc1)[C@H](O)C(=O)N1CSC(C)(C)[C@H]1C(=O)NCc1ccncc1 [Example B67, ((1S,2S)-1-Benzyl-3-{5,5-dimethyl-4-[(pyridin-4-ylmethyl)-carbamoyl]-thiazolidin-3-yl}-2-hydroxy-3-oxo-propyl)-carbamic acid prop-2-ynyl ester]
- Ki [1]: 11.4 nM
- EC50 [2]: > 3200 nM

Structure (SMILES): Cc1ccccc1C(=O)N[C@@H](Cc1ccccc1)[C@H](O)C(=O)N1CSC(C)(C)[C@H]1C(=O)N[C@H]1CCc2ccccc21 [Example B78, (R)-3-{(2S,3S)-2-Hydroxy-4-phenyl-3-[(1-o-tolyl-methanoyl)-amino]-butanoyl}-5,5-dimethyl-thiazolidine-4-carboxylic acid (S)-indan-1-ylamide]
- Ki [1]: 0.18 nM
- EC50 [2]: 557 nM

Structure (SMILES): Cc1ccccc1C(=O)N[C@@H](Cc1ccccc1)[C@H](O)C(=O)N1CSC(C)(C)[C@H]1C(=O)NCc1cccs1 [Example B79, (R)-3-{(2S,3S)-2-Hydroxy-4phenyl-3-[(1-o-tolyl-methanoyl)-amino]-butanoyl}-5,5-dimethyl-thiazolidine-4-carboxylic acid (thiophen-2-ylmethyl)-amide]
- Ki [1]: 0.78 nM
- EC50 [2]: 530 nM

Structure (SMILES): Cc1c(F)cccc1C(=O)N[C@@H](Cc1ccccc1)[C@H](O)C(=O)N1CSC(C)(C)[C@H]1C(=O)N[C@@H]1C=CCCC1 [Example B81, (R)-3-((2S,3S)-3-{[1-(3-Fluoro-2-methyl-phenyl)-methanoyl]-amino}-2-hydroxy-4-phenyl-butanoyl)-5,5-dimethyl-thiazolidine-4-carboxylic acid (S)-cyclohex-2-enylamide]
- Ki [1]: 0.35 nM
- EC50 [2]: 878 nM

Structure (SMILES): Cc1c(F)cccc1C(=O)N[C@@H](Cc1ccccc1)[C@H](O)C(=O)N1CSC(C)(C)[C@H]1C(=O)N[C@H]1CCc2ccccc21 [Example B82, (R)-3-((2S,3S)-3-{[1-(3-Fluoro-2-methyl-phenyl)-methanoyl]-amino}-2-hydroxy-4-phenyl-butanoyl)-5,5-dimethyl-thiazolidine-4-carboxylic acid (S)-indan-1-ylamide]
- Ki [1]: 0.19 nM
- EC50 [2]: 1290 nM
